These results are taken from patent US10328060B2, “Certain protein kinase inhibitors” (Shanghai Fochon Pharmaceutical Co., Ltd., priority 2014, dated 2019).

For one assay, the system named is SU-DHL-6 cell. Briefly: SU-DHL-6 cell proliferation assay (MTS). Type of assay: cell-based. The following applies: SU-DHL-6 cells, 48 h. As for the experimental part: To investigate whether a compound is able to inhibit the activity of PI3K in cells, a mechanism-based assay using SU-DHL-6 cell (ATCC number: CRL 2959) was developed. In this assay, inhibition of PI3K-6 was detected by the inhibition of SUDHL-6 cells proliferation. SU-DHL-6 cells were cultured in culture flasks to 40-80% confluence in RPMI-1640 plus 10% fetal bovine serum. Cells were collected and plated onto 96-well-plates at 30000/well. Plates were incubated overnight at 37° C., with 5% CO2 to adhere. Compounds were added to the plates. Final compound concentrations were […], 123.5, 41.2, 13.7, 4.6 and 1.5 nM. Place plates at 37° C., with 5% CO2 for 48 h. After removing the medium, 20 μl MTS/100 μl medium mixture solution were added to each well and incubate the plates for exactly 2 hours. Stop the reaction by adding 25 μl 10% SDS per well. Measure absorbance at 490 nm and 650 nm (reference wavelength). IC50 was calculated using GraphPad Prism 5.0.

Another assay deals with WSU-NHL. As to the kind of experiment: WSU-NHL cell viability assay (CellTiter-Glo). Conditions: WSU-NHL cells, 48 h. It is filed as cell-based. As for the experimental part:
The cancer cell line WSU-NHL (DSMZ number: ACC 58) was maintained in RPMI-1640 medium with 10% FBS, at 37° C. in an atmosphere of 5% CO2. The tumor cells were routinely sub-cultured twice weekly by trypsin-EDTA treatment. The cells growing in an exponential growth phase were harvested, counted, and planted in 96-well plated by 5000 cells/well. After 24 hours' culture, the series diluted test articles were added into wells, then return the assay plate into the incubator and continue culture for 48 h. At the ending point of incubation, the assay plates were detected by Promega CellTiter-Glo Luminescent Cell Viability Assay Kit (Promege 7572), and the luminescence record of each well was read by the 2104 EnVision plate reader. The data were interpreted by GraphPad Prism5 software.
Background: Cellular ATP, detected with luciferase, serves as a proxy for viable cell number.

A word on the IC50: it is the point on the concentration scale where inhibition reaches its midpoint. Read a low IC50 as inhibition by little substance. `CCC(Nc1ncnc2[nH]cnc12)c1cc2scc(C)n2c(=O)c1-c1cccc(F)c1` (centres unmarked) [Example 11, 7-(1((9H-purin-6-yl)amino)propyl)-6-(3-fluorophenyl)-3-methyl-5H-thiazolo[3,2-a]pyridin-5-one] showed an IC50 in the assay with SU-DHL-6 cell (Homo sapiens) of 12 nM.

On to `CC(Nc1ncnc2[nH]cnc12)c1cc2scc(C(F)(F)F)n2c(=O)c1-c1ccccc1` (centres unmarked) [Example 18, 7-(1-((9H-purin-6-yl)amino)ethyl)-6-phenyl-3-(trifluoromethyl)-5H-thiazol-[3,2-a]pyridin-5-one], for which the concentration for half-maximal inhibition (IC50) in the assay with SU-DHL-6 cell was found to be 23 nM; in the assay with WSU-NHL, 95 nM.

`CCC(Nc1ncnc2[nH]cnc12)c1cc2scc(C)n2c(=O)c1-c1ccc(F)cc1` (centres unmarked) [Example 6, 7-(1-((9H-purin-6-yl)amino)propyl)-6-(4-fluorophenyl)-3-methyl-5H-thiazolo[3,2-a]pyridin-5-one] returned an IC50 in the assay on SU-DHL-6 cell (Homo sapiens) of 60 nM.

Turning to `O=c1c(-c2ccccc2)c(C(Nc2ncnc3[nH]cnc23)C2CC2)cc2scc(Cl)n12` (centres unmarked) [Example 21, 7-(((9H-purin-6-yl)amino)(cyclopropyl)-methyl)-3-chloro-6-phenyl-5H-thiazolo-[3,2-a]pyridin-5-one], the figures for the IC50 in the assay with SU-DHL-6 cell (Homo sapiens) and in the assay with WSU-NHL (Homo sapiens) were 27 nM and 20 nM, respectively.

Consider `CCC(Nc1ncnc2[nH]cnc12)c1cc2scc(C(F)(F)F)n2c(=O)c1-c1cccc(F)c1` (centres unmarked) [Example 17, 7-(1-((9H-purin-6-yl)amino)propyl)-6-(3-fluorophenyl)-3-(trifluoromethyl)-5H-thiazolo[3,2-a]pyridin-5-one], for which inhibition in the assay on SU-DHL-6 cell (Homo sapiens) was half-maximal at 85 nM (IC50).

Regarding `O=c1c(-c2cccc(F)c2)c(C(Nc2ncnc3[nH]cnc23)C2CC2)cc2scc(C(F)(F)F)n12` (centres unmarked) [Example 22, 7-(((9H-purin-6-yl)amino)(cyclopropyl)-methyl)-6-(3-fluorophenyl)-3-(trifluoromethyl)-5H-thiazolo[3,2-a]-pyridin-5-one], the IC50 with SU-DHL-6 cell (Homo sapiens) was found to be 186 nM.

With `O=c1c(-c2cccc(F)c2)c(C(Nc2ncnc3[nH]cnc23)C2CC2)cc2scc(Cl)n12` (centres unmarked) [Example 20, 7-(((9H-purin-6-yl)amino)(cyclopropyl)methyl)-3-chloro-6-(3-fluorophenyl)-5H-thiazolo[3,2-a]pyridin-5-one], the IC50 in the assay with SU-DHL-6 cell (Homo sapiens) came out at 7.8 nM; in the assay with WSU-NHL (Homo sapiens) it was 39 nM.

Regarding `CCC(Nc1ncnc2[nH]cnc12)c1cc2scc(C)n2c(=O)c1-c1ccccc1` (centres unmarked) [Example 2, 7-(1-(9H-purin-6-ylamino)propyl)-3-methyl-6-phenyl-5H-thiazolo[3,2-a]pyridin-5-one], the IC50 with SU-DHL-6 cell (Homo sapiens) is 60 nM.

In the assay with SU-DHL-6 cell (Homo sapiens), `Cc1csc2cc(C(C)Nc3ncnc4[nH]cnc34)c(-c3ccccc3F)c(=O)n12` (centres unmarked) [Example 7, 7-(1-((9H-purin-6-yl)amino)ethyl)-6-(2-fluorophenyl)-3-methyl-5H-thiazolo[3,2-a]pyridin-5-one] showed a concentration for half-maximal inhibition (IC50) of 13 nM.

`CCC(Nc1ncnc2[nH]cnc12)c1cc2scc(C(F)(F)F)n2c(=O)c1-c1ccccc1` (centres unmarked) [Example 19] registered an IC50 in the assay with SU-DHL-6 cell (Homo sapiens) of 17 nM.

In the assay on SU-DHL-6 cell (Homo sapiens), `O=c1c(-c2ccccc2)c(C(Nc2ncnc3[nH]cnc23)C2CC2)cc2scc(C(F)(F)F)n12` (centres unmarked) [Example 23, 7-(((9H-purin-6-yl)amino)(cyclopropyl)-methyl)-6-phenyl-3-(trifluoromethyl)-5H-thiazolo[3,2-a]pyridin-5-one] came in with an IC50 of 27 nM.

Take `CCC(Nc1ncnc2[nH]cnc12)c1cc2scc(Cl)n2c(=O)c1-c1ccccc1` (centres unmarked) [Example 15, 7-(1-((9H-purin-6-yl)amino)propyl)-3-chloro-6-phenyl-5H-thiazolol[3,2-a]-pyridin-5-one]: in the assay with SU-DHL-6 cell (Homo sapiens), it took 44.8 nM to reach half-maximal inhibition (IC50).

Take `CCC(Nc1ncnc2[nH]cnc12)c1cc2scc(C)n2c(=O)c1-c1ccccc1F` (stereo not drawn) [Example 10, 7-(l-((9H-purin-6-yl)amino)propyl)-6-(2-fluorophenyl)-3-methyl-5H-thiazolo[3,2-a]pyridin-5-one]: the IC50 in the assay with SU-DHL-6 cell (Homo sapiens) was 28 nM.

Molecule `Cc1nc(N)nc(NC(C)c2cc3scc(Cl)n3c(=O)c2-c2cccc(F)c2)c1C#N` (centres unmarked) [Example 27, 2-amino-4-((1-(3-chloro-6-(3-fluorophenyl)-5-oxo-5H-thiazolo[3,2-a]pyridin-7-yl)ethyl)amino)-6-methylpyrimidine-5-carbonitrile] had an IC50 in the assay with WSU-NHL (Homo sapiens) of less than 9 nM.

The molecule `Cc1csc2cc(C(C)Nc3ncnc4[nH]cnc34)c(-c3ccccc3)c(=O)n12` (centres unmarked) [Example 1, 7-(1-(9H-purin-6-ylamino)ethyl)-3-methyl-6-phenyl-5H-thiazolo[3,2-a]pyridin-5-one] yielded an IC50 in the assay with SU-DHL-6 cell (Homo sapiens) of 36 nM.

In the case of `CC(Nc1ncnc2[nH]cnc12)c1cc2scc(Cl)n2c(=O)c1-c1ccccc1` (centres unmarked) [Example 14, 7-(1-((9H-purin-6-yl)amino)ethyl)-3-chloro-6-phenyl-5H-thiazolo[3,2-a]-pyridin-5-one], the IC50 in the assay with SU-DHL-6 cell (Homo sapiens) came to 8.5 nM; with WSU-NHL (Homo sapiens), 49 nM.

For the molecule `CCC(Nc1ncnc2[nH]cnc12)c1cc2scc(Cl)n2c(=O)c1-c1cccc(F)c1` (centres unmarked) [Example 13, 7-(1-((9H-purin-6-yl)amino)propyl)-3-chloro-6-(3-fluorophenyl)-5H-thiazolo[3,2-a]pyridin-5-one], the IC50 amounted to 7.5 nM with SU-DHL-6 cell (Homo sapiens) and 36 nM with WSU-NHL (Homo sapiens).

In the assay with SU-DHL-6 cell (Homo sapiens), `CCc1csc2cc(C(C)Nc3ncnc4[nH]cnc34)c(-c3ccccc3)c(=O)n12` (centres unmarked) [Example 9, 7-(1((9H-purin-6-yl)amino)ethyl)-3-ethyl-6-phenyl-5H-thiazolo[3,2-a]-pyridin-5-one] registered an IC50 of 103 nM.

`CC(Nc1ncnc2[nH]cnc12)c1cc2scc(C(F)(F)F)n2c(=O)c1-c1cccc(F)c1` (centres unmarked) [Example 16, 7-(1-((9H-purin-6-yl)amino)ethyl)-6-(3-fluorophenyl)-3-(trifluoromethyl)-5H-thiazolo[3,2-a]pyridin-5-one]: the figures for the IC50 in the assay on SU-DHL-6 cell (Homo sapiens) and with WSU-NHL (Homo sapiens) were 4.4 nM and 87 nM, respectively.

As for `Cc1nc(N)nc(NC(C)c2cc3scc(C)n3c(=O)c2-c2ccccc2)c1C#N` (centres unmarked) [Example 26, 2-amino-4-methyl-6-((1-(3-methyl-5-oxo-6-phenyl-5H-thiazolo[3,2-a]pyridin-7-yl)ethyl)amino)pyrimidine-5-carbonitrile], the IC50 in the assay on WSU-NHL (Homo sapiens) was less than 9 nM.

In the assay on SU-DHL-6 cell (Homo sapiens), `Cc1csc2cc(C(C)Nc3ncnc4[nH]cnc34)c(-c3ccc(F)cc3)c(=O)n12` (centres unmarked) [Example 5, 7-(1-((9H-purin-6-yl)amino)ethyl)-6-(4-fluorophenyl)-3-methyl-5H-thiazolo[3,2-a]pyridin-5-one] displayed an IC50 of 72 nM.

`Cc1csc2cc(C(Nc3ncnc4[nH]cnc34)C3CC3)c(-c3ccccc3)c(=O)n12` (centres unmarked) [Example 24, 7-(((9H-purin-6-yl)amino)(cyclopropyl)methyl)-3-methyl-6-phenyl-5H-thiazolo[3,2-a]pyridin-5-one]: the IC50 in the assay with SU-DHL-6 cell (Homo sapiens) amounted to 5.7 nM; in the assay with WSU-NHL (Homo sapiens), 16 nM.

For `CC(Nc1ncnc2[nH]cnc12)c1cc2ccccn2c(=O)c1-c1ccccc1` (centres unmarked) [Example 3, 2-(1-(9H-purin-6-ylamino)ethyl)-3-phenyl-4H-quinolizin-4-one], the IC50 in the assay with SU-DHL-6 cell (Homo sapiens) is 713 nM.

As for `Cc1csc2cc(C(Nc3ncnc4[nH]cnc34)C3CC3)c(-c3cccc(F)c3)c(=O)n12` (centres unmarked) [Example 25, 7-(((9H-purin-6-yl)amino)(cyclopropyl)methyl)-6-(3-fluorophenyl)-3-methyl-5H-thiazolo[3,2-a]pyridin-5-one], the IC50 was 3.6 nM in the assay on SU-DHL-6 cell (Homo sapiens) and 47 nM in the assay on WSU-NHL (Homo sapiens).

In the assay with SU-DHL-6 cell (Homo sapiens), `Cc1csc2cc(C(C)Nc3ncnc4[nH]cnc34)c(-c3cccc(F)c3)c(=O)n12` (centres unmarked) [Example 8, 7-(1-((9H-purin-6-yl)amino)ethyl)-6-(3-fluorophenyl)-3-methyl-5H-thiazolo[3,2-a]pyridin-5-one] gave an IC50 of 7.2 nM.

Regarding `CC(Nc1ncnc2[nH]cnc12)c1cc2scc(Cl)n2c(=O)c1-c1cccc(F)c1` (centres unmarked) [Example 12, 7-(1-((9H-purin-6-yl)amino)ethyl)-3-chloro-6-(3-fluorophenyl)-5H-thiazolo[3,2-a]pyridin-5-one], the IC50 with SU-DHL-6 cell (Homo sapiens) is 2.7 nM; in the assay with WSU-NHL (Homo sapiens) it was 24 nM.
